Measured values as given in the NIST ThermoML archive (doi:10.1021/je100287g).

Assay: cn = amount concentration of the nth substance listed, in mol/dm3
Details: 101 kPa, Liquid, digital conductivity meter (CM-180, Elico India)

Nc1ccc(S(=O)(=O)[N-]c2nccs2)cc1.[Na+] [sodium ((4-aminophenyl)sulfonyl)(thiazol-2-yl)amide] + O
electrical conductivity [S/m]
Details | c1 = 0.001 | c1 = 0.002 | c1 = 0.004 | c1 = 0.006 | c1 = 0.008 | c1 = 0.01
283 K | 0.0053 | 0.0101 | 0.0189 | 0.0281 | 0.0366 | 0.0468
293 K | 0.0064 | 0.0124 | 0.0233 | 0.0344 | 0.0447 | 0.0574
303 K | 0.0078 | 0.0151 | 0.0288 | 0.0423 | 0.0545 | 0.07
313 K | 0.00967 | 0.0195 | 0.0353 | 0.0516 | 0.0661 | 0.0866
